Columns and labels:
Experiment in all cases: Cytotoxicity assay (CellTiter 96 AQueous One Solution, 72 h)
[1] = system: cervical cancer cell line (HELA); type: cell-based, human
Method: (§1) In vitro cell viability with cultured cells is a method commonly used for cytotoxicity activities of potential anticancer compounds due to reduced cost speed, and potential for automation, and tests using human cells other than some in vivo animal tests. […] The cytotoxicity assay was conducted as per the standard method and as described by Abrahams et al. 2018 [111]. […] The plate was then incubated for 72 h at 37 °C and 5% CO2. To each well, 20 µL CellTiter 96 AQueous One Solution (Promega, Madison, WI, USA) was added and the plates were incubated for 4 h as previously described. Thereafter, absorbance was read at 490 nm on a multiplate reader (Molecular Devices, San Jose, CA, USA). […] The values recorded are averages of at least three separate experiments (n = 3).

[2] = system: neuronal cancer cell line (SHSY5Y); type: cell-based, human
Method: as §1

[3] = system: breast cancer cell line (MDA-MB231); type: cell-based, human
Method: as §1

[4] = system: human embryonic kidney 293 (HEK293); type: cell-based; conditions: normal cell line, n = 3, read-out: EC50 ± Std Dev (µM) HEK293
Method: as §1

How did the EC50 ([1]; 72 h, n = 3, read-out: EC50 ± Std Dev (µM) HELA) turn out when `N.N.[Cl][Pt][Cl]` [Cisplatin, cisplatin, reference compound] was run?
Its EC50 is greater than 50 µM.

And the “Selectivity Index (SI) HELA” value ([1]; EC50 in HEK293 over EC50 in HELA)?
The value was 0.28.

And the EC50 ([2]; 72 h, n = 3, read-out: EC50 ± Std Dev (µM) SHSY5Y)?
Its EC50 is 19.7 ± 3.77 µM.

What about the “Selectivity Index (SI) SHSY5Y” value ([2]; EC50 in HEK293 over EC50 in SHSY5Y) of the same molecule?
Its value is 0.72.

And the EC50 ([3]; 72 h, n = 3, read-out: EC50 ± Std Dev (µM) MDA-MB231)?
Its EC50 is 22.7 ± 4.89 µM.

And the “Selectivity Index (SI) MDA-MB231” value ([3]; EC50 in HEK293 over EC50 in MDA-MB231)?
The value was 0.63.

And the EC50 [4]?
The EC50 was 14.2 ± 3.8 µM.
